Results: patent US11058903B2, “Methods for identifying and treating cachexia or pre-cachexia using an inhibitor of rage” (THE BROAD INSTITUTE, INC., priority 2013, dated 2021)
“Also recorded” adds a separate entry of the source.

Columns and labels:
MEK/ERK = assay: Western blot of phosphorylated MEK and ERK in muscle cells exposed to cachexia-inducing conditioned media (CI-CM); format: cell-based, human; conditions: FIG. 20; for CI-CM stimulated phosphorylation of ERK: human muscle cells stimulated by CI-CM; for MEK/ERK activation (pMEK, pERK) by cachexia stimuli in CI-CM: muscle cells exposed to CI-CM, relative to NCI-CM, Western blot
Description: FIG. 20 is an image of a Western blot showing phosphorylated MEK (pMEK) and phosphorylated ERK (pERK) in muscle cells exposed to cachexia-inducing conditioned media (CI-CM), either in the absence or presence of the MEK/ERK inhibitors, PD184352 (PD184) and trametinib (Tram). Also shown are pMEK and pERK levels in muscle cells exposed to non-cachexia-inducing conditioned media (NCI-CM).
Inhibition of MEK by exposure to PD1 84352 or trametinib blocked CI-CM stimulated phosphorylation of ERK (FIG. 20).

HSkM cells = assay: In-Cell Western of myosin heavy chain (MyoHC) content in muscle cells exposed to CI-CM; format: cell-based, human
Description: FIG. 21 is a chart showing the quantification of myosin heavy chain (MyoHC) content determined by In-Cell Western analysis of in vitro HSkM cells treated with media conditioned by cachexia-inducing MkN1 and G361 cells and in vitro HSkM cells treated with media conditioned by non-cachexia-inducing 293 cells, either in the presence or absence of a MEK/ERK inhibitor PD184352 (PD184).
FIG. 22 is a chart showing the myosin heavy chain (MyoHC) content determined by In-Cell Western analysis of in vitro HSkM cells pre-treated (for 2 days) or not pre-treated with cachexia-inducing conditioned media (“CI-CM”), either in the presence or absence of an ERK1/2 inhibitor, SCH772984 (SCH2984).
FIGS. 23A and 23B are a series of charts showing the dose response of myosin heavy chain (MyoHC) content determined by In-Cell Western analysis of muscle cells treated with a RAGE Anti-Peptide (FIG. 23A) or an anti-RAGE mAb (FIG. 23B), either in the absence or presence of cachexia-inducing conditioned media (CI-CM).
FIG. 24 is a chart showing the dose response of myosin heavy chain (MyoHC) content determined by In-Cell Western analysis of muscle cells treated with a recombinant soluble RAGE, either in the presence of cachexia-inducing conditioned media (CI-CM) or non-cachexia-inducing conditioned media (NCI-CM). […]

human muscle cells = assay: Testing of secreted proteins/cytokines for induction of the L1000 cachexia signature in muscle cells; format: cell-based; conditions: in vitro systems described
Protocol: FIG. 32 are graphs showing cytokine abundance relative to cachexia in patient plasma and conditioned media. Human cytokines (300 on cytokine array) in muscle were tested. None of the expected “usual suspect” cytokines induced the cachectic phenotype or gene expression signature in human muscle cells. IL6, INHBA, IFNG, IL10, IL1, TNFa was assayed in patient plasma and conditioned media.
FIG. 33 is a graph showing testing of human cytokines for induction of cancer cachexia signature. For some the enrichment score was weak (e.g., 1.25).
A faithful read-out of the cachectic phenotype was also developed using a novel high-throughput, low-cost gene expression profiling method (L1000) (FIG. 5). L1000 involves the profiling of 1000 human transcripts from which the remainder of the transcriptome can be computationally inferred. This method, validated in over 1 million samples, allowed for profiling of small numbers of cells grown in 384-well plates.
Therefore, it is likely that the major cachexia-inducing factors were yet to be discovered.

[1] = tested on: differentiated primary adipocytes; assay: Lipid loss in adipocytes treated with CI-CM (bodipy/DAPI staining); format: cell-based, human; conditions: 5 days CI-CM, FIG. 42
Description: FIG. 42 includes six panels showing adipocytes in cultured stained with bodipy to highlight lipids and DAPI to stain nuclei. Lipids are lost in cells treated for 5 days with cachexia (CXA) inducing conditioned media (CM). Lipid loss is inhibited by inhibiting RAGE signaling.
Lipid loss from differentiated primary adipocytes occurs within 5 days of contact with cachexia-inducing conditioned media (FIG. 42A). This loss is inhibited in adipocytes treated with Rage inhibitors, anti-RAGE monoclonal antibody AF1145 or Tramatenib. This phenotypic response is also seen in melanoma cells.
The effects of treatment with RAGE blocking antibodies and Tremetinib are shown (FIG. 42).

pancreatic cancer cells = assay: CellTiter Glo cell number assay, chemotherapy with or without soluble RAGE; format: cell-based; conditions: treated for 5 days; Gemcitibine alone or with increasing doses of recombinant human soluble RAGE

O=C(NOCC1CC1)c1ccc(F)c(F)c1Nc1ccc(I)cc1Cl [PD184352]
CI-CM stimulated phosphorylation of ERK (MEK/ERK): blocked
MEK/ERK activation (pMEK, pERK) by cachexia stimuli in CI-CM (MEK/ERK): inhibited
cachectic induced loss of myosin heavy chain (MyoHC) protein (HSkM cells; HSkM cells with media conditioned by MkN1 and G361 cells, low-dose, dose curve, FIG. 21): blocks loss of MyoHC; also recorded: block

IFNγ: secreted protein tested as candidate cachexia-inducing protein
induction of the cachexia signature (human muscle cells): none of them strongly induced the cachexia signature

TNFα
induction of the cachexia signature (human muscle cells): none of them strongly induced the cachexia signature

CC(=O)Nc1cccc(-n2c(=O)n(C3CC3)c(=O)c3c(Nc4ccc(I)cc4F)n(C)c(=O)c(C)c32)c1 [trametinib, N-[3-[3-Cyclopropyl-5-[(2-fluoro-4-iodophenyl)amino]-3,4,6,7-tetrahydro-6,8-dimethyl-2,4,7-trioxopyrido[4,3-d]pyrimidin-1(2H)-yl]phenyl]acetamide]
CI-CM stimulated phosphorylation of ERK (MEK/ERK): blocked
MEK/ERK activation (pMEK, pERK) by cachexia stimuli in CI-CM (MEK/ERK): inhibited
lipid loss from adipocytes caused by cachexia-inducing conditioned media ([1]; listed as Tramatenib): inhibited
lipid loss from adipocytes caused by cachexia-inducing conditioned media ([1]; listed as Tremetinib): block the loss of lipid

Activin
induction of the cachexia signature (human muscle cells): none of them strongly induced the cachexia signature

IL-6: secreted protein tested as candidate cachexia-inducing protein
induction of the cachexia signature (human muscle cells): none of them strongly induced the cachexia signature

Nc1ccn([C@@H]2O[C@H](CO)[C@@H](O)C2(F)F)c(=O)n1 [Gemcitibine]
pancreatic cancer cell numbers (CellTiter Glo) (pancreatic cancer cells): reduction

O=C(Nc1ccc2[nH]nc(-c3ccncc3)c2c1)C1CCN(CC(=O)N2CCN(c3ccc(-c4ncccn4)cc3)CC2)C1 (stereo not drawn) [SCH772984]
reversal of cachectic induced loss of myosin heavy chain (MyoHC) (HSkM cells; HSkM cells pre-treated (2 days) or not with CI-CM, dose response, FIG. 22): can reverse the MyoHC loss at a certain dose, beyond which the benefit is lost; also recorded: (partially) reverse; also recorded: reduced in a dose-dependent manner

Myostatin: secreted protein tested as candidate cachexia-inducing protein
induction of the cachexia signature (human muscle cells): none of them strongly induced the cachexia signature

B1: IL-10: secreted protein tested as candidate cachexia-inducing protein (protein, UniProt P22301 19-178, looked up)
Interleukin-10: SPGQGTQSENSCTHFPGNLPNMLRDLRDAFSRVKTFFQMKDQLDNLLLKESLLEDFKGYLGCQALSEMIQFYLEEVMPQAENQDPDIKAHVNSLGENLKTLRLRLRRCHRFLPCENKSKAVEQVKNAFNKLQEKGIYKAMSEFDIFINYIEAYMTMKIRN
induction of the cachexia signature (human muscle cells): none of them strongly induced the cachexia signature
